Test results as given in patent US12195427B2, “MASP-2 inhibitors and methods of use” (priority 2018, dated 2025).

What was measured:
MASP-2 CCP2-SP = MASP-2 CCP2-SP (Homo sapiens (Human), UniProt O00187); experiment: MASP-2 co-crystallization, X-ray crystallography and structure analysis (H-bonds, van der Waals contacts); design: van der Waals contact distance, MASP-2 HIS 483 atom CD2 / van der Waals contact distance, MASP-2 HIS 483 atom NE2 / van der Waals contact distance, SER 654 C to compound atom / van der Waals contact distance, SER 654 O to compound atom / van der Waals contact distance, TRP 655 C to compound atom / van der Waals contact distance, MASP-2 GLY 528 atom CA / van der Waals contact distance TRP 655 atom CZ3 / van der Waals contact distance TRP 655 atom N / van der Waals contact distance TRP 655 atom CE3 / van der Waals contact distance GLY 656 atom C / van der Waals contact distance GLY 656 atom CA / van der Waals contact distance GLY 656 atom O / van der Waals contact distance, MASP-2 TYR 607 atom CD1 / van der Waals contact distance, MASP-2 PRO 606 atom O / d(C3,CA1) / d(CA1,N1)2 / d(H4,O1) / d(H4,O2) / d(O1,O2) / d(CA1,O2) / d(CA6,O1) / d(CA6,O2) / d(CA1,C5) / d(O2,H3) / d(N2,C2) / d(CA5,N2) / d(N2,C4) / d(N2,C6) / d(N2,CA3) / d(N2,O3) / d(O4,H2): unit not given beside the values;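 for Ligand-pharmacophore element distance, pharmacophore element C2: distance from averaged pharmacophore element to bound ligand; missing value means element absent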;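 for Ligand-pharmacophore element distance, pharmacophore element C3: distance from averaged pharmacophore element to bound ligand; missing value means element absent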;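 for Ligand-pharmacophore element distance, pharmacophore element C4: distance from averaged pharmacophore element to bound ligand; missing value means element absent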;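 for Ligand-pharmacophore element distance, pharmacophore element C5: distance from averaged pharmacophore element to bound ligand; missing value means element absent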
Procedure, shortened: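 First, CCP2-SP constructs with or without a 6His tag are produced in E. coli. Crystals are then soaked once or twice with inhibitor, cryoprotected in 20% glycerol or frozen directly, and diffracted at synchrotron beamlines. Phasing uses molecular replacement with parts of 1Q3X.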

Lectin Pathway = Lectin Pathway Activation Assay in Human Serum (mannan-coated ELISA, C3c detection); format: biochemical; conditions: 1% human serum
Description: Microtiter ELISA plate was coated with mannan from Saccharomyces cerevisiae (Sigma-Aldrich, M7504) for overnight at 4° C. in coating buffer [15 mM Na2CO3, 35 mM NaHCO3].

[1] = Table A5-1 pharmacophore: distance between elements, S2/S1 region
[2] = Table A5-2 pharmacophore distance, S3/S4 region
[3] = Table A7-1, between pharmacophore elements of the bound compound

Chain of MASP-2 CCP2-SP (O00187 445-686): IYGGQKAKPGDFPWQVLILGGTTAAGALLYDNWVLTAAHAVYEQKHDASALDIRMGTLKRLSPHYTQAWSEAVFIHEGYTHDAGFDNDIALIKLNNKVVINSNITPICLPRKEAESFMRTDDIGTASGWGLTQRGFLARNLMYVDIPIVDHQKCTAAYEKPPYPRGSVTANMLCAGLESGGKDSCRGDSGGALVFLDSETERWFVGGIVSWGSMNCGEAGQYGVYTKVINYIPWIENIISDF
Chain of MASP-2 CCP2-SP (O00187 364-432 partner): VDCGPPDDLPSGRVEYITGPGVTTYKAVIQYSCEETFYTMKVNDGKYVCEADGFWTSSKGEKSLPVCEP

Question: Which results are given for `Cc1nc(N)ccc1CNC(=O)[C@H](C)NC(=O)[C@H]1C[C@H](Cc2ccccc2)CN1` [compound 1304, (2R,4S)—N—((S)-1-(((6-Amino-2-methylpyridin-3-yl)methyl)amino)-1-oxopropan-2-yl)-4-benzylpyrrolidine-2-carboxamide]?
Answer: H-bond distance to MASP-2 ASP 627 atom OD2 (MASP-2 CCP2-SP; Table A1 (H-Bonds), ASP 627 OD2): 3.17; H-bond distance to MASP-2 GLY 656 atom N (MASP-2 CCP2-SP; Table A1 (H-Bonds), GLY 656 N): 3.2; H-bond distance to MASP-2 GLY 656 atom O (MASP-2 CCP2-SP; Table A1 (H-Bonds), GLY 656 O): 2.81; H-bond distance to MASP-2 SER 628 atom O (MASP-2 CCP2-SP; Table A1 (H-Bonds), SER 628 O): 3.18; H-bond distance to MASP-2 SER 654 atom O (MASP-2 CCP2-SP; Table A1 (H-Bonds), SER 654 O): 2.97; H-bond distance to MASP-2 SER 657 atom O (MASP-2 CCP2-SP; Table A1 (H-Bonds), SER 657 O): 2.96; van der Waals contact distance, MASP-2 HIS 483 atom CD2 (MASP-2 CCP2-SP; Table A2-1): 3.71; van der Waals contact distance, MASP-2 HIS 483 atom NE2 (MASP-2 CCP2-SP; Table A2-1): 3.65; van der Waals contact distance, MASP-2 GLY 528 atom CA (MASP-2 CCP2-SP; Table A2-2): 3.79; van der Waals contact distance, MASP-2 PHE 529 atom CD2 (MASP-2 CCP2-SP; Table A2-3): 3.79; van der Waals contact distance, MASP-2 PHE 529 atom CE2 (MASP-2 CCP2-SP; Table A2-3): 3.84; van der Waals contact distance, MASP-2 TYR 607 atom CD1 (MASP-2 CCP2-SP; Table A2-4): 3.78; van der Waals contact distance, MASP-2 amino acid atom to compound atom (MASP-2 CCP2-SP; Table A2-7: SER 628 (CB, O, OG)): 3.65; van der Waals contact distance, VAL 653 CG1 to compound atom (MASP-2 CCP2-SP; Table A2-11): 3.27; van der Waals contact distance, TRP 655 CA to compound atom (MASP-2 CCP2-SP; Table A2-12): 3.42; van der Waals contact distance TRP 655 atom CE3 (MASP-2 CCP2-SP; Table A2-13, MASP-2 TRP 655 CE3, compound atom in line below): 3.78; van der Waals contact distance TRP 655 atom CZ3 (MASP-2 CCP2-SP; Table A2-13, MASP-2 TRP 655 CZ3): 3.68; van der Waals contact distance, MASP-2 amino acid atom to compound atom (MASP-2 CCP2-SP; Table A2 section before Table A2-8): 3.81; Ligand-pharmacophore element distance, pharmacophore element C2 (MASP-2 CCP2-SP; Table A4-1, element C2): 0; Ligand-pharmacophore element distance, pharmacophore element C3 (MASP-2 CCP2-SP; Table A4-1, element C3): 0.09; Ligand-pharmacophore element distance, pharmacophore element C4 (MASP-2 CCP2-SP; Table A4-1, element C4): 0; Ligand-pharmacophore element distance, pharmacophore element C5 (MASP-2 CCP2-SP; Table A4-1, element C5): 0; Ligand-pharmacophore element distance, pharmacophore element C6 (MASP-2 CCP2-SP; Table A4-1, element C6): 0; Ligand-pharmacophore element distance, pharmacophore element C7 (MASP-2 CCP2-SP; Table A4-1, element C7): 0; Ligand-pharmacophore element distance, pharmacophore element CA1 (MASP-2 CCP2-SP; Table A4-1, element CA1): 0.56; Ligand-pharmacophore element distance, pharmacophore element CA2 (MASP-2 CCP2-SP; Table A4-1, element CA2): 0.23; Ligand-pharmacophore element distance, pharmacophore element CA3 (MASP-2 CCP2-SP; Table A4-1, element CA3): 0; Ligand-pharmacophore element distance, pharmacophore element CA4 (MASP-2 CCP2-SP; Table A4-1, element CA4): 0; Ligand-pharmacophore element distance, pharmacophore element CA5 (MASP-2 CCP2-SP; Table A4-1, element CA5): 0; Ligand-pharmacophore element distance, pharmacophore element CA6 (MASP-2 CCP2-SP; Table A4-1, element CA6): 0; d(C3,CA1) (MASP-2 CCP2-SP; [1]): 2.84; d(CA1,N1)2 (MASP-2 CCP2-SP; [1]): 1.38; d(CA1,O1) (MASP-2 CCP2-SP; [1]): 4.39; d(CA1,O2) (MASP-2 CCP2-SP; [1]): 3.89; d(H4,O1) (MASP-2 CCP2-SP; [1]): 4.40; d(H4,O2) (MASP-2 CCP2-SP; [1]): 3.85; d(O1,O2) (MASP-2 CCP2-SP; [1]): 3.37; d(N2,CA2) (MASP-2 CCP2-SP; [2]): 5.96; d(O2,H3) (MASP-2 CCP2-SP; [2]): 4.37; d(O2,N2) (MASP-2 CCP2-SP; [2]): 2.62; a(C3, CA1, O1) (MASP-2 CCP2-SP; Table A6-1 pharmacophore angle): 149.82; a(CA1, O1, O2) (MASP-2 CCP2-SP; Table A6-1 pharmacophore angle): 105.87; a(O1, O2, H4) (MASP-2 CCP2-SP; Table A6-1 pharmacophore angle): 132.43; a(N1, CA1, O1) b) (MASP-2 CCP2-SP; Table A6-1 pharmacophore angle, Methyl-amino-pyridine compounds): 173.92; a(O1, O2, H3) (MASP-2 CCP2-SP; Table A6-2 pharmacophore angle): 147.16; a(O1, O2, N2) (MASP-2 CCP2-SP; Table A6-2 pharmacophore angle): 139.74; a(O2, N2, CA2) (MASP-2 CCP2-SP; Table A6-2 pharmacophore angle): 156.83; Pharmacophore torsion angle a(C3, CA1, O1, H4) (MASP-2 CCP2-SP; [3]): 24.93; Pharmacophore torsion angle a(H4, O1, O2, H3) (MASP-2 CCP2-SP; [3]): 49.79; Pharmacophore torsion angle a(H4, O1, O2, N2) (MASP-2 CCP2-SP; [3]): 138.09; Pharmacophore torsion angle a(N1, CA1, O1, H4) (MASP-2 CCP2-SP; [3]): 5.90; Pharmacophore torsion angle a(O1, H4, O2, CA1) (MASP-2 CCP2-SP; [3]): −84.58; Pharmacophore torsion angle a(O1, O2, N2, CA2) (MASP-2 CCP2-SP; Table A7-2, between pharmacophore elements of the bound compound): 125.90; IC50 (Lectin Pathway): 50 to 500 nM
